{"source": "patent US11590472B2", "about": "“Methods and compositions for on-demand release of ClO2 gas from UV-activated chlorite ion” (Wisconsin Alumni Research Foundation, priority 2015, dated 2023)", "tested_on": "L. monocytogenes", "experiment": "Microbial kill on L. monocytogenes inoculated lettuce in pouches", "format": "cell-based", "details": "5 days post inoculation and packaging", "text": "To verify its efficacy against pathogenic bacteria, pouch samples were sent to Institute of Food Safety and Health (IFSH) for a microbial study where they were filled with 30 grams of lettuce that was inoculated with the L. monocytogenes with an initial count of 7.6E+06 CFU/g. The pouches were the same structure and size as Produce Packaging Example 1. The pouches were exposed to 3 s or 5 s of 254 nm UV radiation and analyzed for the microbial kill at 1 and 5 days. […] The pouches containing the ClO2 additive were either pre humidified to 80% RH or left unconditioned. The moisture required for the chlorine dioxide production in the dry samples came from the lettuce. It was observed that chlorine dioxide was able to attain 4-5 log kill in 5 days post inoculation and packaging.", "data": [{"compound": "[O][Cl+][O-]", "note": "[chlorine dioxide]", "values": [{"measurement": "log kill of L. monocytogenes", "result": "4-5 log"}]}]}
